Consider 24 compounds from patent US9908895B2, “Tricyclic fused thiophene derivatives as JAK inhibitors” (Incyte Corporation, priority 2012, dated 2018).

The assay concerns human JAK1. Description: In vitro JAK kinase assay (HTRF), JAK1. The class given is biochemical. As to conditions: ratio of JAK2 IC50 to JAK1 IC50 at 1 mM ATP. As for the experimental part: Compounds herein were tested for inhibitory activity of JAK targets according to the following in vitro assay described in Park et al., Analytical Biochemistry 1999, 269, 94-104. The catalytic domains of human JAK1 (a.a. 837-1142), JAK2 (a.a. 828-1132) and JAK3 (a.a. 781-1124) were expressed using baculovirus in insect cells and purified. The catalytic activity of JAK1, JAK2 or JAK3 was assayed by measuring the phosphorylation of a biotinylated peptide. The phosphorylated peptide was detected by homogenous time resolved fluorescence (HTRF). IC50s of compounds were measured for each kinase in the 40 μL reactions that contain the enzyme, ATP and 500 nM peptide in 50 mM Tris (pH 7.8) buffer with 100 mM NaCl, 5 mM DTT, and 0.1 mg/mL (0.01%) BSA. For the 1 mM IC50 measurements, ATP concentration in the reactions was 1 mM. Reactions were carried out at room temperature for 1 hour and then stopped with 20 μL 45 mM EDTA, 300 nM SA-APC, 6 nM Eu-Py20 in assay buffer (Perkin Elmer, Boston, Mass.). Binding to the Europium labeled antibody took place for 40 minutes and HTRF signal was measured on a PHERA star plate reader (BMG, Cary, N.C.). The Example compounds were each tested in the Example A assay (see Table 1 for data for the compounds of the examples as tested by the assay of Example A at 1 mM ATP).
In general terms: Time-resolved FRET reads energy transfer from a long-lived donor to a nearby acceptor.

On to `Cc1nc2cnc3ccsc3c2n1[C@H]1CC[C@H](CC#N)OC1` [Example 38, [(2R,5S)-5-(2-Methyl-1H-imidazo[4,5-d]thieno[3,2-b]pyridin-1-yl)tetrahydro-2H-pyran-2-yl]acetonitrile], for which the JAK2/JAK1 is on record as over 10. Consider `CCc1nc2cnc3ccsc3c2n1[C@H]1CC[C@H](CC#N)OC1` [Example 39, [(2R,5S)-5-(2-Ethyl-1H-imidazo[4,5-d]thieno[3,2-b]pyridin-1-yl)tetrahydro-2H-pyran-2-yl]acetonitrile], for which the JAK2/JAK1 was over 10. For `CC(C)c1nc2cnc3ccsc3c2n1[C@H]1CC[C@H](CC#N)OC1` [Example 42, [(2R,5S)-5-(2-Isopropyl-1H-imidazo[4,5-d]thieno[3,2-b]pyridin-1-yl)tetrahydro-2H-pyran-2-yl]acetonitrile], the JAK2/JAK1 is given as over 10. For `N#CC[C@H]1CC[C@H](n2c(C3CC3)nc3cnc4ccsc4c32)CO1` [Example 43, [(2R,5S)-5-(2-Cyclopropyl-1H-imidazo[4,5-d]thieno[3,2-b]pyridin-1-yl)tetrahydro-2H-pyran-2-yl]acetonitrile], the JAK2/JAK1 is given as over 10. Regarding `C[C@@H](O)c1nc2cnc3ccsc3c2n1[C@@H]1CC[C@@H](CC#N)OC1` [Example 44, ((2S,5R)-5-{2-[(1R)-1-Hydroxyethyl]-1H-imidazo[4,5-d]thieno[3,2-b]pyridin-1-yl}tetrahydro-2H-pyran-2-yl)acetonitrile], the JAK2/JAK1 is over 10.

Consider `C[C@H](O)c1nc2cnc3ccsc3c2n1[C@H]1CC[C@H](CC#N)OC1` [Example 45, ((2R,5S)-5-{2-[(1S)-1-Hydroxyethyl]-1H-imidazo[4,5-d]thieno[3,2-b]pyridin-1-yl}tetrahydro-2H-pyran-2-yl)acetonitrile], for which the JAK2/JAK1 is reported as over 10. Next, `CCc1nc2cnc3ccsc3c2n1[C@H]1CC[C@H](CC#N)CC1` [Example 47, [trans-4-(2-Ethyl-1H-imidazo[4,5-d]thieno[3,2-b]pyridin-1-yl)cyclohexyl]acetonitrile]: over 10; `Cc1nc2cnc3ccsc3c2n1[C@H]1CC[C@H](CC#N)CC1` [Example 48, [trans-4-(2-Methyl-1H-imidazo[4,5-d]thieno[3,2-b]pyridin-1-yl)cyclohexyl]acetonitrile]: over 7. Turning to `C[C@@H](O)c1nc2cnc3ccsc3c2n1[C@H]1CC[C@@H](CC#N)C1.O=C(O)C(F)(F)F` [Example 49, ((1R,3S)-3-{2-[(1R)-1-Hydroxyethyl]-1H-imidazo[4,5-d]thieno[3,2-b]pyridin-1-yl}cyclopentyl)acetonitrile trifluoroacetate], the JAK2/JAK1 was over 10. For the compound `CCOC(=O)N1CCC[C@H](n2c([C@@H](C)O)nc3cnc4ccsc4c32)C1` [Example 50, Ethyl(3S)-3-{2-[(1R)-1-hydroxyethyl]-1H-imidazo[4,5-d]thieno[3,2-b]pyridin-1-yl}piperidine-1-carboxylate], the JAK2/JAK1 is over 10. Consider `C[C@@H](O)c1nc2cnc3ccsc3c2n1[C@H]1CCCN(C(=O)CC#N)C1.O=C(O)C(F)(F)F` [Example 51, 3-((3S)-3-{2-[(1R)-1-Hydroxyethyl]-1H-imidazo[4,5-d]thieno[3,2-b]pyridin-1-yl}piperidin-1-yl)-3-oxopropanenitrile trifluoroacetate], for which the JAK2/JAK1 is over 10. For `C[C@@H](O)c1nc2cnc3ccsc3c2n1[C@H]1CCCN(C(=O)CCC(F)(F)F)C1` [Example 52, (1R)-1-{1-[(3S)-1-(4,4,4-Trifluorobutanoyl)piperidin-3-yl]-1H-imidazo[4,5-d]thieno[3,2-b]pyridin-2-yl}ethanol], the JAK2/JAK1 is listed as over 10. As for `C[C@@H](O)c1nc2cnc3ccsc3c2n1[C@H]1CCCN(C(=O)CCc2cn[nH]c2)C1` [Example 53, (1R)-1-(1-{(3S)-1-[3-(1H-Pyrazol-4-yl)propanoyl]piperidin-3-yl}-1H-imidazo[4,5-d]thieno[3,2-b]pyridin-2-yl)ethanol], the JAK2/JAK1 is over 10. Next, `C[C@@H](O)c1nc2cnc3ccsc3c2n1[C@H]1CCCN(C(=O)CCc2cccnc2)C1` [Example 54, (1R)-1-{1-[(3S)-1-(3-Pyridin-3-ylpropanoyl)piperidin-3-yl]-1H-imidazo[4,5-d]thieno[3,2-b]pyridin-2-yl}ethanol]: over 10; `CC(CC(=O)N1CCC[C@H](n2c([C@@H](C)O)nc3cnc4ccsc4c32)C1)c1ccccc1` (stereo partly drawn) [Example 55, (1R)-1-{1-[(3S)-1-(3-Phenylbutanoyl)piperidin-3-yl]-1H-imidazo[4,5-d]thieno[3,2-b]pyridin-2-yl}ethanol]: over 10. In the case of `C[C@@H](O)c1nc2cnc3ccsc3c2n1[C@H]1CCCN(CCC#N)C1` [Example 56, 3-((3S)-3-{2-[(1R)-1-Hydroxyethyl]-1H-imidazo[4,5-d]thieno[3,2-b]pyridin-1-yl}piperidin-1-yl)propanenitrile], the JAK2/JAK1 is over 10. Next, `C[C@@H](O)c1nc2cnc3ccsc3c2n1[C@H]1CCCN(C(=O)CCc2ccccc2)C1` [Example 57]: over 10; `C[C@@H](O)c1nc2cnc3ccsc3c2n1[C@H]1CCCN(C(=O)CCC#N)C1` [Example 58, 4-((3S)-3-{2-[(1R)-1-Hydroxyethyl]-1H-imidazo[4,5-d]thieno[3,2-b]pyridin-1-yl}piperidin-1-yl)-4-oxobutanenitrile]: over 10; `C[C@@H](O)c1nc2cnc3ccsc3c2n1[C@H]1CCCN(C(=O)CCCC#N)C1` [Example 59, 5-((3S)-3-{2-[(1R)-1-Hydroxyethyl]-1H-imidazo[4,5-d]thieno[3,2-b]pyridin-1-yl}piperidin-1-yl)-5-oxopentanenitrile]: over 10.

As to `C[C@@H](O)c1nc2cnc3ccsc3c2n1C1CCN(CCCC(F)(F)F)CC1` [Example 60, (1R)-1-{1-[1-(4,4,4-Trifluorobutyl)piperidin-4-yl]-1H-imidazo[4,5-d]thieno[3,2-b]pyridin-2-yl}ethanol], the JAK2/JAK1 is over 10.

Take `C[C@@H](O)c1nc2cnc3ccsc3c2n1C1CCN(CC#N)CC1.O=C(O)C(F)(F)F` [Example 61, (4-{2-[(1R)-1-Hydroxyethyl]-1H-imidazo[4,5-d]thieno[3,2-b]pyridin-1-yl}piperidin-1-yl)acetonitrile trifluoroacetate]: the JAK2/JAK1 was over 10. For the compound `C[C@@H](O)c1nc2cnc3ccsc3c2n1[C@H]1CCN(CCC#N)C1` [Example 62, 3-((3S)-3-{2-[(1R)-1-Hydroxyethyl]-1H-imidazo[4,5-d]thieno[3,2-b]pyridin-1-yl}pyrrolidin-1-yl)propanenitrile], the JAK2/JAK1 was over 10. On to `C[C@@H](O)c1nc2cnc3ccsc3c2n1[C@H]1CCN(C(=O)CC#N)C1` [Example 63, 3-((3S)-3-{2-[(1R)-1-Hydroxyethyl]-1H-imidazo[4,5-d]thieno[3,2-b]pyridin-1-yl}pyrrolidin-1-yl)-3-oxopropanenitrile], for which the JAK2/JAK1 is reported as over 6. `C[C@@H](O)c1nc2cnc3ccsc3c2n1[C@H]1CCN(CCCC(F)(F)F)C1` [Example 64, (1R)-1-{1-[(3S)-1-(4,4,4-Trifluorobutyl)pyrrolidin-3-yl]-1H-imidazo[4,5-d]thieno[3,2-b]pyridin-2-yl}ethanol]: the JAK2/JAK1 was over 10.
